Laboratory results from US9085562B2, “6-alkyl-N-(pyridin-2-yl)-4-aryloxypicolinamide analogs as mGluR5 negative allosteric modulators and methods of making and using the same” (Vanderbilt University, priority 2011, dated 2015).
In brackets after ≈: the same amount, converted by molar mass. Read-outs that look alike come from different tables or passages of the source. Each block holds one compound with its values, some of them ahead of it.

Columns and labels:
[1] = test system: Marble Burying Activity in Mice; assay: Inhibition of marble burying in mice (model of anxiolytic behavior); assay type: in vivo; conditions: WT and Fmrl KO C57BL/6J mice
Method: It is well known that mice will bury foreign objects such as glass marbles in deep bedding (Deacon, R. M. J. Nature Protocols 2006, 1, 122-124). […] These facts along with the relative convenience of this assay make it a useful in vivo screening tool.
Doses of compound were suspended in vehicle (10% Tween 80 for intraperitoneal dosing and 0.5% methylcellulose for oral dosing), vortexed vigorously, heated gently with a Master Heat Gun (Master Appliance Corp., Racine, Wis.), and sonicated at 37° C. for 30 minutes. The pH was checked using 0-14 EMD strips and adjusted to approximately 7. All doses were administered at approximately 10 mL/kg.
Studies were conducted using male Harlan CD-1 mice (Harlan Sprague Dawley, Indianapolis, Ind.), weighing 30 to 35 grams. Subjects were housed in a large colony room under a 12 hour light/dark cycle (lights on at 6:00 a.m.) with food and water provided ad libitum. Test sessions were performed between 10:00 a.m. and 4:00 p.m. All dose groups consisted of ≧10 mice. All experiments were conducted in accordance with the National Institute of Health regulations of animal care covered in Principles of Laboratory Animal Care (National Institutes of Health publication 85-23, revised 1985) and were approved by the Institutional Animal Care and Use Committee.
Plexiglass cages (32×17×14 cm) were arranged on top of a large, round table. Mice were transported from the colony room to the testing room and allowed to habituate for 30 minutes. […] The novel compound and comparator were evaluated in a counterbalanced design, in which all doses of compounds were tested in each session. […] Clear, perforated plastic lids were set on top of each cage and the amount of marble burying was recorded over a 30 minute interval. The mice were then removed from the cages and the number of buried marbles was counted using the criteria of greater than ⅔ covered by bedding. […]
The data for the dose-response studies were analyzed by a between-group analysis of variance. […]

mGluR5 = molecular target: T1, mGluR5 (Rattus norvegicus, UniProt P31424); assay: mGluR5 IC50 / NAM profile of Tables 2 and 4; assay type: cell-based; conditions: Table 2, line under mGluR5 IC50
T1 construct: expressed in transfected cells
T1 sequence (P31424 21-1171 isoform P31424-2 limits assumed): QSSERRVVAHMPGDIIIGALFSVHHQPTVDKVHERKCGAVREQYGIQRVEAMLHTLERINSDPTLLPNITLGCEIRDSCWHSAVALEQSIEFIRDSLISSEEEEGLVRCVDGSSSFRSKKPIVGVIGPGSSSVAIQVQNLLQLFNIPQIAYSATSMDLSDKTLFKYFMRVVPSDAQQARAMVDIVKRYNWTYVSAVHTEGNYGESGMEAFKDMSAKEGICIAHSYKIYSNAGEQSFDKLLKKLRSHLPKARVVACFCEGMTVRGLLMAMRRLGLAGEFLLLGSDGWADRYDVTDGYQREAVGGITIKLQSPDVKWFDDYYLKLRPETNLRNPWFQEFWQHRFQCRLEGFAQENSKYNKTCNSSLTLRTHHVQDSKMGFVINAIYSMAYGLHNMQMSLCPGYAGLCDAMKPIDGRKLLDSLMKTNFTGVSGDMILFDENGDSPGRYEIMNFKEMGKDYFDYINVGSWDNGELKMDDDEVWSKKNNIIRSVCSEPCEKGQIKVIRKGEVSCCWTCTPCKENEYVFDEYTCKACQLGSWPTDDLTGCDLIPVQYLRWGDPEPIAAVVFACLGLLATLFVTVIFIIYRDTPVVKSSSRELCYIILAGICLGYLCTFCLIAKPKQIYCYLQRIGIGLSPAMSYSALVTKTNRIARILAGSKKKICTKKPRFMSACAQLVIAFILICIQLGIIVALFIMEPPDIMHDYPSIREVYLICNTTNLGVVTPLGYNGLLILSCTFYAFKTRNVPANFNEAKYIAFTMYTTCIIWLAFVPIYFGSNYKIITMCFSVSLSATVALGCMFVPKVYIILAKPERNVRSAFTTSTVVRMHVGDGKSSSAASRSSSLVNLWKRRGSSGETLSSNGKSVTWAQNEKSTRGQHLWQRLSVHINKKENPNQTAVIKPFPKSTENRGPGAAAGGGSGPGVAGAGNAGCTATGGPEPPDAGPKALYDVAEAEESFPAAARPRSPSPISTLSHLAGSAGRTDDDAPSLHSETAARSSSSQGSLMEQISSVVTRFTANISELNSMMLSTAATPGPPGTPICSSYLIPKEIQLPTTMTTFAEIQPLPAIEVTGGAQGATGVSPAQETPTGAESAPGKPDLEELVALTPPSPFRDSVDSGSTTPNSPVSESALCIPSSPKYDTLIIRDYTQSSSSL
Method: Human embryonic kidney (HEK) cells transfected with rat or human mGluR5 were plated in clear bottom assay plates for assay in a Functional Drug Screening System (FDSS). The cells were loaded with a Ca2+-sensitive fluorescent dye (e.g., Fluo-4), and the plates were washed and placed in the FDSS instrument. Test compound was applied to cells 3 seconds after baseline readings were taken. Cells were incubated with the test compounds for 140 seconds and then stimulated with an EC20 concentration of an mGluR5 agonist (e.g., glutamate, 3,5-dihydroxyphenylglycine, or quisqualate); 60-80 seconds later an EC80 concentration of agonist was added and readings taken for an additional 40 seconds. Data were collected at 1 Hz. […] Concentration response curves were generated using a four parameter logistical equation.

[2] = Solubility in SGF and FaSSIF; assay type: physicochemical
From the text: (§1) Additional physicochemical and pharmacological data are provided below in Tables 2-4 for Test Compounds 1 and 2 (Compounds […] and (2) as described herein).

Permeability/efflux = assay type: in vitro ADME; conditions: Table 2, Permeability/efflux
From the text: as §1

Human PPB = assay type: in vitro ADME
From the text: as §1

elevated plus maze = assay: Elevated plus maze; assay type: in vivo; conditions: 30 mg/kg
Method: Test compounds (1) and (2) were administrated at the 10 mg/kg and 30 mg/kg doses described in this figure. […] Prospective In Vivo Effects

Mouse BHB = assay type: in vitro ADME
From the text: as §1

[3] = Mouse PO PK (plasma and brain concentration); assay type: in vivo; conditions: Mouse PO 10 mg/kg; for concentration at 0.25 h / concentration at 0.5 h / concentration at 3 h / concentration at 1 h: mouse, po, 10 mg/kg
From the text: as §1

[4] = test system: Marble Burying Activity in Mice; conditions: literature (Spooren 2000; Nicolas 2006); cited from earlier work
cytochrome P450 1A2 = molecular target: T2, cytochrome P450 1A2 (Homo sapiens, UniProt P05177); conditions: cited from earlier work
T2 sequence (P05177 1-516): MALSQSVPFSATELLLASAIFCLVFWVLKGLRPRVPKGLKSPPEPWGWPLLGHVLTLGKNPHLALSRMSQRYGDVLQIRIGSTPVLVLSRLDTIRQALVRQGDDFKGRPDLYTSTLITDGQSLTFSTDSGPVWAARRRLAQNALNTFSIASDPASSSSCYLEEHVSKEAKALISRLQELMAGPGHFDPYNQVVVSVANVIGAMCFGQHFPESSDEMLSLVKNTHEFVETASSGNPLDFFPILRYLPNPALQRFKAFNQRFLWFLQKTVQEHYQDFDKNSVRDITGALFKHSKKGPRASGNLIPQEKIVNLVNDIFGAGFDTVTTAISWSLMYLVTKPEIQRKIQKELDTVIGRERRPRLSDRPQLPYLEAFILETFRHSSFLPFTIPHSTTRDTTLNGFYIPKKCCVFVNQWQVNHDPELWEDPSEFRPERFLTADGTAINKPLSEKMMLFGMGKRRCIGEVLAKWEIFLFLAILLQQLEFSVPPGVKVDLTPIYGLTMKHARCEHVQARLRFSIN

[5] = intravenous administration to rhesus monkeys; cited from earlier work
[6] = test system: N-methyl-D-aspartate (NMDA) receptor; conditions: at higher concentrations; cited from earlier work
mGluR4 = mGluR4 (Homo sapiens, UniProt Q14833); conditions: cited from earlier work
mGluR4, sequence (Q14833 33-912): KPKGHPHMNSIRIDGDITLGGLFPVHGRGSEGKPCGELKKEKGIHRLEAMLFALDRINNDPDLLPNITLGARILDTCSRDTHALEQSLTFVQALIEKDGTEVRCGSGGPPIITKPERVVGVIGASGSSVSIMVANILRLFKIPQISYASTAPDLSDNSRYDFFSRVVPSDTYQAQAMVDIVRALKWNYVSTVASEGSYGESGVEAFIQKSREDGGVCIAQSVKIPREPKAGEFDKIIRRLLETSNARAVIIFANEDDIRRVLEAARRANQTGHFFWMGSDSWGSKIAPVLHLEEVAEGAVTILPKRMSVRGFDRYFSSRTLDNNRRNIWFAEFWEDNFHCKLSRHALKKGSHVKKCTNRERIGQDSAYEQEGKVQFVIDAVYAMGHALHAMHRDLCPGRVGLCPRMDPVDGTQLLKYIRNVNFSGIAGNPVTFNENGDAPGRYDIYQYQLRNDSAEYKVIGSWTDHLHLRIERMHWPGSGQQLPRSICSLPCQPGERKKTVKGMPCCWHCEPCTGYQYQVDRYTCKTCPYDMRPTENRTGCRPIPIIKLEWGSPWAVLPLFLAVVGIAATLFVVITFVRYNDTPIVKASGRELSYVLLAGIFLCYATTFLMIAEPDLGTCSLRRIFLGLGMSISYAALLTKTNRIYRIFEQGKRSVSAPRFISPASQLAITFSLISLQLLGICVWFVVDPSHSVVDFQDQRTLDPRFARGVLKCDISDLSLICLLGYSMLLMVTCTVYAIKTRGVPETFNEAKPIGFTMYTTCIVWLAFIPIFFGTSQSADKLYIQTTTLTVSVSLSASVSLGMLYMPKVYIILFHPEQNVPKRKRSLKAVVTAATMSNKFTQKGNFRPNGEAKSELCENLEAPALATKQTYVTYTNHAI

[7] = SGF, pH 1.6, simulated gastric fluid
[8] = brain, read-out: Brain Concentration
[9] = brain, read-out: Free Brain Concentration
[10] = brain, 3 h, read-out: Brain Concentration
[11] = brain, 3 h, read-out: Free Brain Concentration
[12] = plasma, read-out: Plasma Concentration

Compound: Cc1nc(C#Cc2ccc(-c3cc(F)cc(C#N)c3)nc2)cs1 [STX107, reference compound]
inhibition of marble burying vs. vehicle ([1]; positive control, 10 mg/kg free base IP 60 min ptx): inhibition of marble burying was observed

mGluR5 mode of action (mGluR5): NAM
solubility ([2]; FaSSIF, pH 6.5, fassif): 47 µg/mL (≈ 144 µM)
solubility [2, 7]: 205 µg/mL (≈ 630 µM)
Permeability (Permeability/efflux): Predicted high
efflux (Permeability/efflux): no efflux
Human PPB, % (Human PPB): 91.4%
Compound: Cc1cc(Oc2cncnc2)cc(C(=O)Nc2ccc(F)cn2)n1 [drawing 263, N-(5-fluoropyridin-2-yl)-6-methyl-4-(pyrimidin-5-yloxy)picolinamide]

Compound: Cc1cc(Oc2cncnc2)cc(C(=O)Nc2ccc(F)cn2)n1 [Compound (2), N-(5-fluoropyridin-2-yl)-6-methyl-4-(pyrimidin-5-yloxy)picolinamide]
inhibition of marble burying vs. vehicle ([1]; 3 mg/kg PO 15 min prior to testing, 0.5% MC, 30 min burying): inhibition of marble burying was observed
inhibition of marble burying vs. vehicle ([1]; 10 mg/kg PO 15 min prior to testing, 0.5% MC, 30 min burying): inhibition of marble burying was observed
time spent in the open arms (elevated plus maze): statistically significant increase in the time spent in the open arms
total distance traveled (elevated plus maze): statistically significant beneficial effect

Mouse BHB (%) (Mouse BHB): 98.5%
Brain Concentration (nM) ([3]; 1 h): BLQ
Plasma Concentration (nM) ([3]; 1 h): BLQ
concentration at 0.25 h [3, 8]: 176 nM
concentration at 0.25 h [3, 9]: 2.6 nM
concentration at 0.5 h [3, 8]: 143 nM
concentration at 0.5 h [3, 9]: 2.1 nM
concentration at 3 h [3, 10]: 19.6 nM
concentration at 3 h [3, 11]: 0.3 nM
concentration at 0.25 h [3, 12]: 48.3 nM
concentration at 0.5 h [3, 12]: 30.7 nM
concentration at 3 h ([3]; plasma, 3 h, read-out: Plasma Concentration): 3.2 nM
Compound: Cc1cc(Oc2cncc(F)c2)cc(C(=O)Nc2ccc(F)cn2)n1 [drawing 270]

mGluR5 mode of action (mGluR5): NAM
solubility ([2]; FaSSIF, pH 6.5, fassif): 7 µg/mL (≈ 20.4 µM)
solubility [2, 7]: 70 µg/mL (≈ 204 µM)
Permeability (Permeability/efflux): Predicted high
efflux (Permeability/efflux): no efflux
Human PPB, % (Human PPB): 98.5%
Compound: Cc1cc(Oc2cncc(F)c2)cc(C(=O)Nc2ccc(F)cn2)n1 [drawing 264, N-(5-fluoropyridin-2-yl)-4-((5-fluoropyridin-3-yl)oxy)-6-methylpicolinamide]

Mouse BHB (%) (Mouse BHB): 92.2%
Plasma Concentration (nM) ([3]; 1 h): BLQ
Plasma Concentration (nM) ([3]; 3 h): BLQ
concentration at 0.25 h [3, 8]: 195 nM
concentration at 0.25 h [3, 9]: 15.2 nM
concentration at 0.5 h [3, 8]: 345 nM
concentration at 0.5 h [3, 9]: 26.9 nM
concentration at 1 h ([3]; brain, 1 h, read-out: Brain Concentration): 9.9 nM
concentration at 1 h ([3]; brain, 1 h, read-out: Free Brain Concentration): 0.8 nM
concentration at 3 h [3, 10]: 9.2 nM
concentration at 3 h [3, 11]: 0.7 nM
concentration at 0.25 h [3, 12]: 33.2 nM
concentration at 0.5 h [3, 12]: 77.4 nM
Compound: Cc1cc(Oc2cncnc2)cc(C(=O)Nc2ccc(F)cn2)n1 [drawing 269]

Compound: CN1CC(=O)N=C1NC(=O)Nc1cccc(Cl)c1 [fenobam, 1-(3-chlorophenyl)-3-(1-methyl-4-oxo-4,5-dihydro-1H-imidazol-2-yl)urea]
effect in marble burying model [4]: effective in this model

Compound: Cc1nc(C#Cc2cccnc2)cs1 [MTEP, 3-[(2-methyl-1,3-thiazol-4-yl)ethynyl]pyridine]
inhibition of cytochrome P450 1A2 (cytochrome P450 1A2): potent inhibitor of cytochrome P450 1A2
clearance [5]: efficiently cleared

Compound: Cc1cccc(C#Cc2ccccc2)n1 [MPEP, 2-methyl-6-(phenylethynyl)pyridine]
effect in marble burying model [4]: effective in this model
effect on NMDA receptor activity [6]: directly inhibit the N-methyl-D-aspartate (NMDA) receptor activity
activity at mGluR4 (mGluR4): positive allosteric modulator of mGluR4
